Data on 23 compounds can be found in ChEMBL document CHEMBL5365400, “Design and synthesis of aminopyridine containing biaryls reducing c-MYC protein levels in cells” (Bioorg Med Chem Lett, 2023).

Values after ≈ are worked out from the molar mass of the structure shown.

Series [1] in a line: Aqueous solubility of compound. The series is classed as physicochemical. The settings on record: buffer.
Series [2] in a line: AUC (0 to infinity) in po dosed rat. On the set-up: route po. As to conditions: in vivo. Type of series: ADME, organism-based.
Series [3] is described as follows: Lipophilicity, log D of the compound at pH 7.4 by chromatographic method. Type of series: physicochemical. As to conditions: buffer.
Series [4] is described as follows: Volume of distribution at steady state in po dosed rat. The series is classed as ADME, organism-based. The settings on record: in vivo.
The nature of series [5]: Artificial membrane permeability of compound. Type of series: physicochemical. As to conditions: PAMPA; read-out: permeability.
Series [6] can be described thus: Half life in po dosed rat. The series is classed as ADME, organism-based. As to conditions: in vivo.
The nature of series [7]: Clearance in po dosed rat. The series is classed as ADME, organism-based. As to conditions: in vivo.
Series [8] is described as follows: Cmax in po dosed rat. Type of series: ADME, organism-based. On the set-up: route po. The settings on record: in vivo.
Series [9] in a line: Oral bioavailability in rat. As to conditions: in vivo. The series is classed as ADME, organism-based.

As usually defined, the solubility is the concentration that dissolves in the medium under given conditions. A low value points to little dissolved substance. Broadly, the AUC(0-inf) is total exposure, with the tail of the curve extrapolated. The low end stands for less exposure, the high end for more exposure. As usually defined, the chromatographic logD is a lipophilicity value derived from retention on a column. Read a low chromatographic logD as lower lipophilicity. The half-life is the time needed for the level to fall by half in the phase considered. Higher therefore signals slow loss. Broadly, the Cmax is the peak of the concentration-time curve. A word on the bioavailability: it is the share of a dose that reaches the circulation, judged against a reference dose that is usually intravenous. A low value points to little systemic uptake.

In the case of `CCN(CC)c1ccc(-c2nc3cccnn3c2Cc2coc(C)n2)cn1`, the solubility in [1] is at least 0.187 mg/mL. The AUC(0-inf) in series [2] amounted to 0.094 µg·h/mL. In addition, the chromatographic logD in [3] amounted to 5. Moreover, in series [4], the Vdss worked out at 2.4 L/kg. Also, the Papp in series [5] came out at 685 nm/s. Besides, the half-life in series [6] is 13.2 min. The same compound showed a clearance in series [7] of 11.4 L/h/kg. In series [8], the peak level (Cmax) was 0.11 µg/mL.
In turn, `CCN(CC)c1ccc(-c2nn3ccccc3c2Cc2coc(C)n2)cn1` had a solubility in series [1] of 0.046 mg/mL (≈ 127 µM). In series [3], this compound displayed a chromatographic logD of 5.4.
On to `CCOCCc1cc(Cl)cnc1-c1ccc(N(CC)CC)nc1`, for which the chromatographic logD in [3] amounted to 7.4.
Same read-out and setting: as for `CCOCCc1nc2ccccc2nc1-c1ccc(N(CC)CC)nc1`, the figure is 7.4.
On to `Cc1nc(Cc2c(-c3ccc(N4[C@@H](C)CC[C@@H]4C)nc3)nc3cccnn23)co1`, for which, in [1], the concentration in solution (solubility) was 0.08 mg/mL (≈ 206 µM). For the same compound, in [2], the AUC(0-inf) was found to be 0.108 µg·h/mL. This compound had a chromatographic logD in series [3] of 4.7. This compound also had a Vdss in series [4] of 3.1 L/kg. In addition, in series [5], the Papp is 570 nm/s. The compound further showed a half-life in [6] of 14.4 min. The clearance in series [7] came to 10.8 L/h/kg. Also, in series [8], the Cmax was 0.22 µg/mL.
Compound `CCOCCc1c(-c2ccc(N(CC)CC)nc2)c(=O)n(C)c2ccccc12` came in with a solubility in [1] of 0.09 mg/mL (≈ 237 µM). Further, the chromatographic logD in series [3] was 6.2.
In series [3], `CCOCCc1cc(-c2ccc(N(CC)CC)nc2)nc2ccccc12` returned a chromatographic logD of 8.
Still for that read-out and setting: as for `CCOCCc1c(-c2ccc(N(CC)CC)nc2)cnc2ccccc12`, the figure is 6.9.
In turn, `CCN(CC)c1ccc(-c2nn3ccncc3c2Cc2coc(C)n2)cn1` had a solubility in [1] of over 0.065 mg/mL. In series [3], this compound registered a chromatographic logD of 4.9.
Regarding `CCN(CC)c1ccc(-c2nc3nccnc3n2Cc2coc(C)n2)cn1`, the chromatographic logD in series [3] is 3.7.
On the same count and under the same terms, the figure for `CCOCCn1c(-c2ccc(N(CC)CC)nc2)nc(Br)c1Br` is 6.9.
`CCN(CC)c1ccc(-c2nn3cccnc3c2Cc2coc(C)n2)cn1`: the solubility in [1] was at least 0.142 mg/mL. In addition, in series [3], the chromatographic logD stood at 4.9.
As to `CCOCCc1cccnc1-c1ccc(N(CC)CC)nc1`, the chromatographic logD in [3] was 5.4.
In [1], `CCN(CC)c1ccc(-c2nc3ncccn3c2Cc2coc(C)n2)cn1` showed a solubility of at least 0.112 mg/mL. The compound also registered a chromatographic logD in series [3] of 1.5.
Consider `CCOCCc1c(-c2ccc(N(CC)CC)nc2)c(=O)[nH]c2ccccc12`, for which, in [1], the solubility is 0.019 mg/mL (≈ 52 µM). For the same compound, the chromatographic logD in series [3] worked out at 5.
The like results for `CCN(CC)c1ccc(-c2nc3cnccn3c2Cc2coc(C)n2)cn1` were, in that order, 0.169 mg/mL (≈ 466 µM) and 4.2.
`CCOCCn1c(-c2ccc(N(CC)CC)nc2)nc2ccccc21` came in with a solubility in series [1] of 0.067 mg/mL (≈ 198 µM). This compound showed a chromatographic logD in [3] of 6.
In turn, `CCN(CC)c1ccc(-c2nc3ccccc3n2Cc2coc(C)n2)cn1` had a solubility in series [1] of 0.065 mg/mL (≈ 180 µM). For the same compound, in [2], the AUC(0-inf) is 0.126 µg·h/mL. In addition, in series [3], the chromatographic logD is 5.1. This compound also showed a Vdss in series [4] of 2.1 L/kg. For the same compound, the Papp in series [5] stood at 680 nm/s. The compound further had a half-life in [6] of 13.2 min. In series [9], the bioavailability is under 5%. Further, in series [7], the clearance amounted to 9.6 L/h/kg. This compound also had a Cmax in [8] of 0.18 µg/mL.
`CCN(CC)c1ccc(-c2nc3ncncc3n2Cc2coc(C)n2)cn1`: in [1], the solubility is at least 0.119 mg/mL. Moreover, the chromatographic logD in [3] is 3.
Consider `CCOCCc1cc2ccccc2nc1-c1ccc(N(CC)CC)nc1`, for which the solubility in series [1] was determined as 0.038 mg/mL (≈ 109 µM). This compound gave a chromatographic logD in series [3] of 7.2.
The compound `CCOCCc1c(-c2ccc(N(CC)CC)nc2)ncc2ccccc12` registered a solubility in series [1] of 0.033 mg/mL (≈ 94.4 µM). The compound also displayed a chromatographic logD in series [3] of 7.
As to `CCN(CC)c1ccc(-n2nc3ccccc3c2Cc2coc(C)n2)cn1`, in series [1], the solubility stood at 0.092 mg/mL (≈ 255 µM). In [3], the chromatographic logD amounted to 5.4.
`CCOCCn1ccnc1-c1ccc(N(CC)CC)nc1`: the chromatographic logD in series [3] is 4.2.
